Results: patent publication US4415558A, “CRF And analogs” (The Salk Institute for Biological Studies, priority 1982, dated 1983)
“Also recorded” adds a separate entry of the source. [ ]: non-standard residue; d: D form. Nle = CCCC[C@H](N)C(=O)O

Key:
[1] = cited from earlier work
[2] = test system: secretion of ACTH and β-endorphin; settings: cited from earlier work
[3] = test system: cultured rat pituitary cells; test: Secretion of ACTH and β-endorphin by cultured rat pituitary cells; format: cell-based; settings: for Stimulation of secretion of ACTH and β-END-LI (in words): general procedure set forth in Example III, in vitro or in vivo not specified
Description: (§1) The synthetic and the natural CRF were examined for their effects on the secretion of ACTH and β-endorphin in vitro and the synthetic CRF was also examined in vivo. The high potency of synthetic and natural CRF to stimulate the secretion of ACTH and β-endorphin by cultured rat pituitary cells was measured. […] The secretory response to maximal (>5 nM) concentrations of CRF is at a plateau level. In vivo doses from 30 ng to 3 μg/Kg of body weight rapidly elevated ACTH and β-endorphin-like (β-END-LI) secretions 5-20 fold.

[4] = Blood pressure in rats (mean carotid blood pressure, urethane-anesthetized rat); format: in vivo; settings: for Lowering of blood pressure (in words): general procedure set forth in Example III; for Effect upon blood pressure (in words): rats
Description: (§2) Plasma levels of ACTH and β-END-LI are elevated for at least 5-20 minutes following the intravenous administration of CRF to nembutal-anesthesized male rats and to quiescent male or female rats with indwelling intravenous cannulae. […] Mean cartoid blood pressure in a urethane-anesthesized rat fell from 87 to 72±2 mm Hg and remained at that level for 30 minutes following an injection equal to 3 μg CRF/Kg body weight; the subsequent administration of an injection equal to 30 μg CRF/Kg body weight lowered mean blood pressure to 42±3 mm Hg for more than 2 hours.

[5] = test system: ACTH and β-END-LI secretion; test: ACTH and β-END-LI secretion in vivo in rat preparations
Description: as §1, §2

Blood pressure in dogs = format: in vivo
[6] = urethane-anesthetized rat, subsequent 30 μg CRF/Kg body weight

Question: Which “Lowering blood pressure in mammals (reported)” value [1] does the source give for CC[C@H](C)[C@H](NC(=O)[C@@H](NC(=O)[C@H](CC(=O)O)NC(=O)[C@H](CC(C)C)NC(=O)[C@H](CC(C)C)NC(=O)[C@H](CC(C)C)NC(=O)[C@H](CCCNC(=N)N)NC(=O)[C@H](CC(N)=O)NC(=O)[C@H](CC(N)=O)NC(=O)[C@H](C)NC(=O)[C@H](C)NC(=O)[C@H](CCC(N)=O)NC(=O)[C@H](CCC(N)=O)NC(=O)[C@H](CCCCN)NC(=O)[C@H](CCC(=O)O)NC(=O)[C@H](CCCCN)NC(=O)[C@H](CCC(=O)O)NC(=O)[C@H](CCC(N)=O)NC(=O)[C@H](CCCCN)NC(=O)[C@H](CCC(=O)O)NC(=O)[C@@H](NC(=O)[C@H](CCC(=O)O)NC(=O)[C@@H](NC(=O)[C@H](CCSC)NC(=O)[C@H](CCCCN)NC(=O)[C@H](CCCNC(=N)N)NC(=O)[C@H](CC(C)C)NC(=O)[C@H](CC(C)C)NC(=O)[C@H](CCC(=O)O)NC(=O)[C@H](CC(C)C)NC(=O)[C@H](CO)NC(=O)[C@H](CC(C)C)NC(=O)[C@H](CC(=O)O)NC(=O)[C@@H](NC(=O)[C@H](CO)NC(=O)[C@@H](NC(=O)[C@@H]1CCCN1C(=O)[C@@H]1CCCN1C(=O)CNC(=O)[C@@H]1CCC(=O)N1)[C@@H](C)CC)[C@@H](C)CC)[C@@H](C)CC)[C@@H](C)CC)[C@@H](C)O)C(N)=O [Sauvagine] here?
Answer: lowering blood pressure in mammals

Question: What about the “Stimulating the secretion of ACTH and β-endorphin (reported)” value [2] of the same molecule?
Answer: stimulating the secretion of ACTH and β-endorphin

Question: With CC[C@H](C)[C@H](NC(=O)[C@H](CC(=O)O)NC(=O)[C@H](CC(C)C)NC(=O)[C@H](CC(C)C)NC(=O)[C@H](CCCCN)NC(=O)[C@H](CCCNC(=N)N)NC(=O)[C@H](CC(N)=O)NC(=O)[C@H](CO)NC(=O)[C@H](Cc1c[nH]cn1)NC(=O)[C@H](C)NC(=O)[C@H](CCC(N)=O)NC(=O)[C@H](CCC(N)=O)NC(=O)[C@H](C)NC(=O)[C@H](CC(C)C)NC(=O)[C@H](CCC(N)=O)NC(=O)[C@H](CC(=O)O)NC(=O)[C@H](C)NC(=O)[C@H](CCCCN)NC(=O)[C@@H](NC(=O)[C@H](CCSC)NC(=O)[C@H](CCC(=O)O)NC(=O)[C@H](CC(C)C)NC(=O)[C@@H](NC(=O)[C@H](CCC(=O)O)NC(=O)[C@H](CCCNC(=N)N)NC(=O)[C@H](CC(C)C)NC(=O)[C@H](CC(C)C)NC(=O)[C@H](Cc1c[nH]cn1)NC(=O)[C@H](Cc1ccccc1)NC(=O)[C@@H](NC(=O)[C@H](CC(C)C)NC(=O)[C@H](CC(=O)O)NC(=O)[C@H](CC(C)C)NC(=O)[C@H](CO)NC(=O)[C@@H](NC(=O)[C@@H]1CCCN1C(=O)[C@@H]1CCCN1)[C@@H](C)CC)[C@@H](C)O)C(C)C)[C@@H](C)O)C(=O)N[C@@H](C)C(N)=O [[des Ser^1 -Gln^2 -Glu^3]-CRF] as the molecule, how does the “Stimulation of secretion of ACTH and β-END-LI (in words)” value (shortened to “Stimulation of secretion … (in words)”) [3] read?
Answer: stimulates the secretion of ACTH and β-END-LI

Question: What about the “Lowering of blood pressure (in words)” value [4] of the same molecule?
Answer: very significant lowering of blood pressure

Question: With CC[C@H](C)[C@H](NC(=O)[C@@H](NC(=O)[C@H](CC(=O)O)NC(=O)[C@H](CC(C)C)NC(=O)[C@H](CC(C)C)NC(=O)[C@H](CC(C)C)NC(=O)[C@H](CCCNC(=N)N)NC(=O)[C@H](CC(N)=O)NC(=O)[C@H](CC(N)=O)NC(=O)[C@H](C)NC(=O)[C@H](C)NC(=O)[C@H](CCC(N)=O)NC(=O)[C@H](CCC(N)=O)NC(=O)[C@H](CCCCN)NC(=O)[C@H](CCC(=O)O)NC(=O)[C@H](CCCCN)NC(=O)[C@H](CCC(=O)O)NC(=O)[C@H](CCC(N)=O)NC(=O)[C@H](CCCCN)NC(=O)[C@H](CCC(=O)O)NC(=O)[C@@H](NC(=O)[C@H](CCC(=O)O)NC(=O)[C@@H](NC(=O)[C@H](CCSC)NC(=O)[C@H](CCCCN)NC(=O)[C@H](CCCNC(=N)N)NC(=O)[C@H](CC(C)C)NC(=O)[C@H](CC(C)C)NC(=O)[C@H](CCC(=O)O)NC(=O)[C@H](CC(C)C)NC(=O)[C@H](CO)NC(=O)[C@H](CC(C)C)NC(=O)[C@H](CC(=O)O)NC(=O)[C@@H](NC(=O)[C@H](CO)NC(=O)[C@@H](NC(=O)[C@@H]1CCCN1C(=O)[C@@H]1CCCN1)[C@@H](C)CC)[C@@H](C)CC)[C@@H](C)CC)[C@@H](C)CC)[C@@H](C)O)C(N)=O [[des pGlu^1 -Gly^2]-sauvagine] as the molecule, how does the “Stimulation of secretion … (in words)” value [3] read?
Answer: stimulates the secretion of ACTH and β-END-LI

Question: And the “Lowering of blood pressure (in words)” value [4]?
Answer: very significant lowering of blood pressure

Question: For CC[C@H](C)[C@H](NC(=O)[C@H](CC(=O)O)NC(=O)[C@H](CC(C)C)NC(=O)[C@H](CC(C)C)NC(=O)[C@H](CCCCN)NC(=O)[C@H](CCCNC(=N)N)NC(=O)[C@H](CC(N)=O)NC(=O)[C@H](CO)NC(=O)[C@H](Cc1c[nH]cn1)NC(=O)[C@H](C)NC(=O)[C@H](CCC(N)=O)NC(=O)[C@H](CCC(N)=O)NC(=O)[C@H](C)NC(=O)[C@H](CC(C)C)NC(=O)[C@H](CCC(N)=O)NC(=O)[C@H](CC(=O)O)NC(=O)[C@H](C)NC(=O)[C@H](CCCCN)NC(=O)[C@@H](NC(=O)[C@H](CCSC)NC(=O)[C@H](CCC(=O)O)NC(=O)[C@H](CC(C)C)NC(=O)[C@@H](NC(=O)[C@H](CCC(=O)O)NC(=O)[C@H](CCCNC(=N)N)NC(=O)[C@H](CC(C)C)NC(=O)[C@H](CC(C)C)NC(=O)[C@H](Cc1c[nH]cn1)NC(=O)[C@H](Cc1ccccc1)NC(=O)[C@@H](NC(=O)[C@H](CC(C)C)NC(=O)[C@H](CC(=O)O)NC(=O)[C@H](CC(C)C)NC(=O)[C@H](CO)NC(=O)[C@@H](NC(=O)[C@@H]1CCCN1C(=O)[C@@H]1CCCN1C(=O)[C@H](CCC(=O)O)NC(=O)[C@H](CCC(N)=O)NC(=O)[C@@H](N)CO)[C@@H](C)CC)[C@@H](C)O)C(C)C)[C@@H](C)O)C(=O)N[C@@H](C)C(N)=O [natural CRF], which “Stimulation of ACTH and β-endorphin secretion in vitro (in words)” value (“Stimulation … in vitro (in words)” for short) [3] is on record?
Answer: high potency

Question: And the “Stimulation … in vitro (in words)” value ([3]; listed as isolated CRF)?
Answer: stimulate ACTH and β-endorphin activies

Question: And the “Stimulation of ACTH and β-END-LI secretion in vivo (in words)” value (from here on “Stimulation … in vivo (in words)”) [5]?
Answer: stimulate ACTH and β-endorphin activies

Question: Which “Stimulation of secretion … (in words)” value [3] does the source give for “H-SQEPPISIDLSFHLLREVLEMTKADQLAQQAHNNRKLLDIA-NH2 [[Ile^8, Ser^11, Asn^33]-CRF]” here?
Answer: stimulates the secretion of ACTH and β-END-LI

Question: And the “Lowering of blood pressure (in words)” value [4]?
Answer: very significant lowering of blood pressure

Question: For “H-SQEPPISLDLTFHLLREVIEMTKAEQLAQQAHSNRKLLDIA-NH2 [[Ile^19, Glu^25]-CRF]”, which “Stimulation of secretion … (in words)” value [3] is on record?
Answer: stimulates the secretion of ACTH and β-END-LI

Question: What about the “Lowering of blood pressure (in words)” value [4] of the same molecule?
Answer: very significant lowering of blood pressure

Question: With “H-SQEPPISLDLTFHLLREVLEATKADQLAQQAHTNRKLLDI[Nle]-NH2 [[Ala^21, Thr^33, Nle^41]-CRF]” as the molecule, how does the “Stimulation of secretion … (in words)” value [3] read?
Answer: stimulates the secretion of ACTH and β-END-LI

Question: What about the “Lowering of blood pressure (in words)” value [4] of the same molecule?
Answer: very significant lowering of blood pressure

Question: For “H-SQEPPISLDLTFHLLREVLE[Nle]TKADQLAQQAYSNRKLLDIA-NH2 [[Nle^21, Tyr^32]-CRF]”, which “Stimulation of secretion … (in words)” value [3] is on record?
Answer: stimulates the secretion of ACTH and β-END-LI

Question: And the “Lowering of blood pressure (in words)” value [4]?
Answer: very significant lowering of blood pressure to a greater extent than CRF

Question: For “H-SQEPPISLDLTFYLLREVLE[Nle]TKADQLAQQAHSNRKLLDIA-NH2 [[Tyr^13, Nle^21]-CRF]”, which “Stimulation of secretion … (in words)” value [3] is on record?
Answer: stimulates the secretion of ACTH and β-END-LI

Question: What about the “Lowering of blood pressure (in words)” value [4] of the same molecule?
Answer: very significant lowering of blood pressure to a greater extent than CRF

Question: For “H-Ser-Gln-Glu-Pro-Pro-Ile-Ser-Leu-Asp-Leu-Thr-Phe-His-Leu-Leu-Arg-Glu-Val- Leu-Glu-Met-Thr-Lys-Ala-Asp-Gln-Leu-Ala-Gln-Gln-Ala-His-Ser-Asn-Arg-Lys-Leu-Leu-Asp-Ile-Ala-NH2 [synthetic CRF]”, which “Maximal concentrations (secretory response at a plateau level)” value ([3]; cultured rat pituitary cells) is on record?
Answer: > 5 nM

Question: And the EC50 ([3]; cultured rat pituitary cells, concentration giving half-maximal response)?
Answer: ~0.1 nM

Question: What about the “Minimal response, secretion of ACTH and β-endorphin” value ([3]; cultured rat pituitary cells, concentration giving minimal response) of the same molecule?
Answer: about 10 picomolar

Question: And the “Stimulation … in vitro (in words)” value [3]?
Answer: stimulate ACTH and β-endorphin activies; also recorded: high potency

Question: What about the “Stimulation … in vivo (in words)” value [5] of the same molecule?
Answer: stimulate ACTH and β-endorphin activies

Question: What about the “Elevation of ACTH and β-endorphin-like (β-END-LI) secretions” value ([5]; in vivo doses from 30 ng to 3 μg/Kg of body weight) of the same molecule?
Answer: 5-20 fold

Question: What about the “Stimulation … in vivo (in words)” value ([5]; listed as Synthetic CRF) of the same molecule?
Answer: powerful stimulator of ACTH and β-END-LI secretion

Question: What about the “Time for which plasma levels of ACTH and β-END-LI are elevated” value ([5]; intravenous administration, nembutal-anesthetized male rats and quiescent male or female rats with indwelling intravenous cannulae) of the same molecule?
Answer: 5 to 20 min

Question: What about the “Effect upon blood pressure (in words)” value ([4]; listed as CRF) of the same molecule?
Answer: dramatic effect upon blood pressure

Question: And the “Effect upon blood pressure (in words)” value ([4]; listed as Synthetic CRF)?
Answer: substantially lower blood pressure for an extended time period

Question: And the “Time blood pressure remained at lowered level” value ([4]; urethane-anesthetized rat, 3 μg CRF/Kg body weight)?
Answer: 30 min

Question: What about the “Mean carotid blood pressure after injection” value ([4]; urethane-anesthetized rat, 3 μg CRF/Kg body weight, fell from 87) of the same molecule?
Answer: 72±2 mm Hg

Question: And the “Duration of lowered mean blood pressure” value [4, 6]?
Answer: more than 2 hours

Question: What about the “Mean blood pressure after subsequent injection” value [4, 6] of the same molecule?
Answer: 42±3 mm Hg

Question: And the “Effect upon blood pressure (in words)” value (Blood pressure in dogs)?
Answer: dramatic effect upon blood pressure
